The source of these data is US8618162B2 (priority 2007, dated 2013).

The subject of assay [1] is Ag ace-1S. The experiment in a line: biochemical. Also noted: species or system Anopheles gambiae. Conditions: selectivity, values in parenthesis.
Assay [2] concerns the target T1, Ag ace-1S (Anopheles gambiae, UniProt Q869C3).
T1 construct: encoding the entire wild type AgAChE protein (ace1, 737 amino acids); made in house; host or cells: Drosophila S2 cells (stably transfected, pMT/V5-His vector), clarified cell lysate
The experiment in a line: biochemical.

The target in the next assay is T2, hAChE (Homo sapiens, UniProt P22303).
T2 construct: purchased Sigma C1682
In words: Ellman AChE inhibition assay, recombinant hAChE. Type of assay: biochemical. A general note: Ellman's reagent forms a yellow product with free thiols.

The target in the next assay is T3, Ag hmg AChE (Anopheles gambiae, UniProt Q869C3).
T3 construct: To prepare the Ag homogenate (Ag hmg) 10 Anopheles gambiae mosquitoes were combined; from tissue; host or cells: whole Anopheles gambiae mosquitoes, crude homogenate supernatant
In words: Ellman AChE inhibition assay, Anopheles gambiae homogenate (Ag hmg). The class given is biochemical. As to conditions: for IC50: pH 7.8, 10 min preincubation; for IC50 ratio (hAChE/Ag hmg): selectivity, values in parenthesis.

The test system of the next assay is Anopheles gambiae. The experiment in a line: Live mosquito contact toxicity, WHO filter paper assay. Type of assay: in vivo. As to conditions: for Live Mosquito Contact Toxicity MC for 100% lethality at 24 hr: 1 hr exposure to treated filter paper.
For the next assay, the target named is T4, Md hmg AChE (Musca domestica, UniProt Q7YWJ9).
T4 construct: Comparison of Ag homogenate and Md head; host or cells: housefly head homogenate

The next assay concerns the target T5, bovine AChE (Bos taurus, UniProt P23795).
T5 sequence (P23795 31-613): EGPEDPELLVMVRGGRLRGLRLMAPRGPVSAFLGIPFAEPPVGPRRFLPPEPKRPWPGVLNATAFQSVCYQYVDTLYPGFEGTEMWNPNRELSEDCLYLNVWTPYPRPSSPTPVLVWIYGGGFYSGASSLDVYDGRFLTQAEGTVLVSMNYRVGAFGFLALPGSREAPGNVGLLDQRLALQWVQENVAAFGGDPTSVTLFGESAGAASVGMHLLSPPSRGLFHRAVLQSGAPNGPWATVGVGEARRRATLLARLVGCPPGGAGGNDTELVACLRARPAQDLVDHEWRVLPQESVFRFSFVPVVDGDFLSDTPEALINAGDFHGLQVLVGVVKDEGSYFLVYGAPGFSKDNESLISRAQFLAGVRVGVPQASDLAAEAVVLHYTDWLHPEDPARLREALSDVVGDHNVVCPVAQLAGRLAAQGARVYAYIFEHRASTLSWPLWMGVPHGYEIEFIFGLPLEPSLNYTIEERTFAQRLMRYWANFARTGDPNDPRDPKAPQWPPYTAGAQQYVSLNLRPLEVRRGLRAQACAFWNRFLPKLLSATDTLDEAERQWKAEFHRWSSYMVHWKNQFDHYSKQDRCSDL
As to conditions: read-out: potency at bovine AChE; Kohn 1965; cited from earlier work.

[3] abbreviates: pH 7.8, 10 min preincubation, read-out: hAChE recomb. IC50.
[4] abbreviates: WT Anopheles gambiae homogenate, read-out: Ag WT hmg IC50.
Where [5] appears, read: Musca domestica head homogenate; data from Metcalf / Kolbezen; read-out: Md WT hmg IC50; cited from earlier work.
Setting [6] is: read-out: Md WT hmg IC50; Musca domestica head homogenate; data from Metcalf / Kolbezen; cited from earlier work.
Where [7] appears, read: Ag WT hmg IC50, WT Anopheles gambiae homogenate.

Read-outs that look alike come from different tables or passages of the source. Some results are limits rather than exact numbers.

T3 sequence (Q869C3 39-737): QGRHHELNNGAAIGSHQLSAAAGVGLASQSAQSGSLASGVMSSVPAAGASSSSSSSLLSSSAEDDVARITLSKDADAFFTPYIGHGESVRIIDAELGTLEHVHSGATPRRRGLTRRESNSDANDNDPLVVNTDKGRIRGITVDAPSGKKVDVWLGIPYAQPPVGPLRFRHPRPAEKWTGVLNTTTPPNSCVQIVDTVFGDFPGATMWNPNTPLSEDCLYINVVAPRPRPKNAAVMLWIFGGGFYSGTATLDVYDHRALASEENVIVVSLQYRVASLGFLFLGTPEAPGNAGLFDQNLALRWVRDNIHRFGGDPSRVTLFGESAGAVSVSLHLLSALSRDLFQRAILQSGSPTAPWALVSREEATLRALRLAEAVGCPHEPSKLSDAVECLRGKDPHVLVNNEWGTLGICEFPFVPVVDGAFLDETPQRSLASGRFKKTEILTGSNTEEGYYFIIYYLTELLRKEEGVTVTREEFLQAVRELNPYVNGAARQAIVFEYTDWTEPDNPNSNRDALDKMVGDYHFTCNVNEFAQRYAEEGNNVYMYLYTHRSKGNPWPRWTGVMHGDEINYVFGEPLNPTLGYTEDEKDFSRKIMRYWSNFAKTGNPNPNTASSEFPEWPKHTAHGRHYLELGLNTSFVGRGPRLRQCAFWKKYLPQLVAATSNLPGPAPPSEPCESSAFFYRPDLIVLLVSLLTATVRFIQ
T1 sequence (Q869C3 39-737): as above
T2 sequence (P22303 32-614): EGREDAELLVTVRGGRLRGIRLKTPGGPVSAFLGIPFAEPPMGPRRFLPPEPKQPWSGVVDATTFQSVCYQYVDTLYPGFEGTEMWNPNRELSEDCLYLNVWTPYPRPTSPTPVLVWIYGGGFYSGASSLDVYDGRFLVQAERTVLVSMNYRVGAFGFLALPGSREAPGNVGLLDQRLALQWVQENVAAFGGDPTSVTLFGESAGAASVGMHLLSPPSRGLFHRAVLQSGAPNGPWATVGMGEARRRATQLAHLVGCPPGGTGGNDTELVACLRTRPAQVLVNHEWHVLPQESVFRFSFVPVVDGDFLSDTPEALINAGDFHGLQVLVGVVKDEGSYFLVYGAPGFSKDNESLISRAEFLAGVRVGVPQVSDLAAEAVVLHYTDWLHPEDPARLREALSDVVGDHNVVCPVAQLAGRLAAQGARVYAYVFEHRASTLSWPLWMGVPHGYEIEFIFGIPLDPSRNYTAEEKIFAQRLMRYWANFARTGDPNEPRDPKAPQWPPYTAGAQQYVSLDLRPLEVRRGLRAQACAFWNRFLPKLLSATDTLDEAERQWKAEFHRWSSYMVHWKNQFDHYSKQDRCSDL
T4 sequence (Q7YWJ9 1-692): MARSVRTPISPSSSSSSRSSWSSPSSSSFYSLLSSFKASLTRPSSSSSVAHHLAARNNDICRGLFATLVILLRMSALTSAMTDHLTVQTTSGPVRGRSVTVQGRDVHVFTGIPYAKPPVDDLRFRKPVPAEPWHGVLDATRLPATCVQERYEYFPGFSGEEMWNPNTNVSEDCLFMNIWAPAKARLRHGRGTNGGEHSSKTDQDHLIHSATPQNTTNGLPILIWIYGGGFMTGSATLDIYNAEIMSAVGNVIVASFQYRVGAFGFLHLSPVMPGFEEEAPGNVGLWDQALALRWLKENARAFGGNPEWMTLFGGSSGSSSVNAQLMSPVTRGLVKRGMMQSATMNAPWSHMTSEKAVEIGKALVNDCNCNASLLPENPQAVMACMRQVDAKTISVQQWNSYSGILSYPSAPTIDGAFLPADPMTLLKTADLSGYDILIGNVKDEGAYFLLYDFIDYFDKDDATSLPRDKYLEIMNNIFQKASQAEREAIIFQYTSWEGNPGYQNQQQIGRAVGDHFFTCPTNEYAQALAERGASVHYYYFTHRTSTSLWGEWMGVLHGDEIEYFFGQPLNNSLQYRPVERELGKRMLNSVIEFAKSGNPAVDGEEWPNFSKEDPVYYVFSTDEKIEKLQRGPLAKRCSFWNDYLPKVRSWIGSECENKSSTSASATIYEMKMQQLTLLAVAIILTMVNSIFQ

Turning to “2-isopropylphenyl-N-methylcarbamate [Compound 22b]”, in the assay with Ag ace-1S [1], the “IC50 ratio (hAChE/Ag ace-1S)” value is “(11x)”. Further, the IC50 came out at 426 nM on Ag ace-1S [2] (recombinant Anopheles gambiae AChE, WT (susceptible) strain, read-out: Ag ace-1S IC50); 4540 nM on hAChE (setting [3]); 507 nM at Ag hmg AChE (setting [4]). Besides, the “IC50 ratio (hAChE/Ag hmg)” value at Ag hmg AChE is given as “(8.8x)”. Further, the “Live Mosquito Contact Toxicity MC for 100% lethality at 24 hr” value with Anopheles gambiae amounted to 56 ug/cm^2.
As for `CNC(=O)O/N=C/C(C)(C)SC` [Aldicarb, reference compound], the IC50 was 84000 nM at Md hmg AChE (setting [5]), 10900 nM on Ag ace-1S [2] and 4620 nM on Ag hmg AChE (setting [4]). Moreover, in the assay on Anopheles gambiae, the “Live Mosquito Contact Toxicity MC for 100% lethality at 24 hr” value is recorded as 0.55 ug/cm^2.
As to `CNC(=O)Oc1cccc2c1OC(C)(C)O2` [Bendiocarb, reference compound], in the assay on Ag ace-1S [1], the “IC50 ratio (hAChE/Ag ace-1S)” value is on record as “(1.9x)”. Besides, the IC50 is 142 nM against Ag ace-1S [2], 270 nM on hAChE (setting [3]) and 65 nM at Ag hmg AChE (setting [4]). In addition, the “IC50 ratio (hAChE/Ag hmg)” value at Ag hmg AChE is on record as “(4.1x)”. Further, the “Live Mosquito Contact Toxicity MC for 100% lethality at 24 hr” value in the assay with Anopheles gambiae was determined as 0.55 ug/cm^2.
Consider `CNC(=O)Oc1cccc2ccccc12` [Carbaryl, reference compound], for which the IC50 on Md hmg AChE (setting [5]) was 900 nM; against Ag ace-1S [2] it was 515 nM; on hAChE (setting [3]) it was 2840 nM; on Ag hmg AChE (setting [4]) it was 262 nM.
With `CNC(=O)Oc1cccc(C(C)(C)C)c1` [Compound 1a, 3-tert-butylphenyl-N-methyl carbamate], the IC50 is 530 nM on bovine AChE, 400 nM on Md hmg AChE (setting [6]) and 265 nM at hAChE. The “Live Mosquito Contact Toxicity MC for 100% lethality at 24 hr” value with Anopheles gambiae worked out at 1.1 ug/cm^2. The “Live Mosquito Contact Toxicity MC for 100% lethality at 24 hr, with synergist” value in the assay on Anopheles gambiae (1 hr exposure, piperonyl butoxide 0.3 mg/mL) was determined as 0.28 ug/cm^2.
Consider `CNC(=O)Oc1cccc([Si](C)(C)C)c1` [Compound 2a, N-methyl 3-(trimethylsilyl)phenyl carbamate], for which the IC50 at Md hmg AChE (setting [6]) was 700 nM; against Ag ace-1S [2] it was 4.1 nM; at hAChE, 532 nM; at Ag hmg AChE (setting [7]), 5.6 nM. For the same compound, the “IC50 ratio (hAChE/Ag ace-1S)” value in the assay on Ag ace-1S [1] is “(130x)”. For the same compound, the “difference in potency Ag hmg AChE vs Md hmg AChE” value at Ag hmg AChE (more potent at Ag hmg AChE) is reported as 100 fold. Moreover, on Ag hmg AChE, the “IC50 ratio (hAChE/Ag hmg)” value is recorded as “(95x)”. For the same compound, in the assay with Anopheles gambiae, the “Live Mosquito Contact Toxicity MC for 100% lethality at 24 hr” value amounted to 5.6 ug/cm^2.
Consider `CC[Si](C)(C)c1cccc(OC(=O)NC)c1` [Compound 3a, N-methyl 3-ethyldimethylsilylphenyl carbamate], for which the “IC50 ratio (hAChE/Ag ace-1S)” value with Ag ace-1S [1] is on record as “(130x)”. In addition, the IC50 was 2.2 nM at Ag ace-1S [2], 285 nM on hAChE and 2.7 nM at Ag hmg AChE (setting [7]). Also, the “IC50 ratio (hAChE/Ag hmg)” value at Ag hmg AChE is “(110x)”. In the assay on Anopheles gambiae, the “Live Mosquito Contact Toxicity MC for 100% lethality at 24 hr” value was determined as 11 ug/cm^2.
On to `CNC(=O)Oc1cccc(C(C)C)c1` [Compound 4a], for which the IC50 on Md hmg AChE (setting [6]) was 340 nM; against Ag ace-1S [2], 12 nM; at Ag hmg AChE (setting [7]) it was 27 nM.
As to `CCc1cccc(OC(=O)NC)c1` [Compound 5a], the IC50 was 13000 nM at Md hmg AChE (setting [6]), 392 nM on Ag ace-1S [2], 2500 nM at hAChE and 630 nM against Ag hmg AChE (setting [7]). In the assay on Ag ace-1S [1], the “IC50 ratio (hAChE/Ag ace-1S)” value is given as “(6.4x)”. The “IC50 ratio (hAChE/Ag hmg)” value on Ag hmg AChE is “(4.0) x”. In the assay on Anopheles gambiae, the “Live Mosquito Contact Toxicity MC for 100% lethality at 24 hr” value turned out to be 11 ug/cm^2.
Consider `CNC(=O)Oc1cccc(-c2ccccc2)c1` [Compound 6a], for which the “IC50 ratio (hAChE/Ag ace-1S)” value with Ag ace-1S [1] is “(3.2x)”. The IC50 was 12100 nM on Ag ace-1S [2], 38900 nM on hAChE and 18400 nM against Ag hmg AChE (setting [7]). Also, at Ag hmg AChE, the “IC50 ratio (hAChE/Ag hmg)” value is reported as “(2.1x)”. In the assay with Anopheles gambiae, the “Live Mosquito Contact Toxicity MC for 100% lethality at 24 hr” value came out at 56 ug/cm^2.
In the case of `CNC(=O)Oc1cccc(Cl)c1` [Compound 7a], the IC50 was 50000 nM at Md hmg AChE (setting [6]), 16600 nM against Ag ace-1S [2], 86000 nM on hAChE and 26000 nM against Ag hmg AChE (setting [7]). Moreover, the “IC50 ratio (hAChE/Ag ace-1S)” value with Ag ace-1S [1] is “(5.2x)”. Also, the “IC50 ratio (hAChE/Ag hmg)” value on Ag hmg AChE is on record as “(3.3x)”. In addition, in the assay on Anopheles gambiae, the “Live Mosquito Contact Toxicity MC for 100% lethality at 24 hr” value stood at 56 ug/cm^2.
`CNC(=O)Oc1cccc(Br)c1` [Compound 8a]: the IC50 at Md hmg AChE (setting [6]) is 13000 nM; on Ag ace-1S [2], 7610 nM; at hAChE, more than 100000 nM; against Ag hmg AChE (setting [7]), 24000 nM. Moreover, the “IC50 ratio (hAChE/Ag ace-1S)” value in the assay on Ag ace-1S [1] is on record as “(>13x)”. Also, the “IC50 ratio (hAChE/Ag hmg)” value at Ag hmg AChE was “(>4.2x)”. The “Live Mosquito Contact Toxicity MC for 100% lethality at 24 hr” value in the assay on Anopheles gambiae is given as 11 ug/cm^2.
`CNC(=O)Oc1cccc(I)c1` [Compound 9a]: the IC50 is 7000 nM at Md hmg AChE (setting [6]), 1820 nM against Ag ace-1S [2], 67200 nM at hAChE and 5170 nM against Ag hmg AChE (setting [7]). Besides, in the assay with Ag ace-1S [1], the “IC50 ratio (hAChE/Ag ace-1S)” value is given as “(37x)”. Further, the “IC50 ratio (hAChE/Ag hmg)” value at Ag hmg AChE is given as “(13x)”. Further, in the assay on Anopheles gambiae, the “Live Mosquito Contact Toxicity MC for 100% lethality at 24 hr” value turned out to be 11 ug/cm^2.
With `CNC(=O)Oc1cc(C)cc(C)c1` [Compound 10a], the IC50 is 6000 nM on Md hmg AChE (setting [6]), 1040 nM against Ag ace-1S [2], 17400 nM on hAChE and 2780 nM at Ag hmg AChE (setting [7]). The “IC50 ratio (hAChE/Ag ace-1S)” value in the assay on Ag ace-1S [1] is recorded as “(17x)”. Besides, at Ag hmg AChE, the “IC50 ratio (hAChE/Ag hmg)” value is on record as “(6.2x)”. Besides, the “Live Mosquito Contact Toxicity MC for 100% lethality at 24 hr” value with Anopheles gambiae is recorded as 56 ug/cm^2.
In the case of `CNC(=O)Oc1cc(C(C)(C)C)cc(C(C)(C)C)c1` [Compound 11a], the IC50 was 78 nM on Md hmg AChE (setting [6]), 2470 nM against Ag ace-1S [2], 5170 nM at hAChE and 5320 nM against Ag hmg AChE (setting [7]). In the assay with Ag ace-1S [1], the “IC50 ratio (hAChE/Ag ace-1S)” value is reported as “(2.1x)”. Also, the “IC50 ratio (hAChE/Ag hmg)” value on Ag hmg AChE is on record as “(1.0x)”. Further, in the assay on Anopheles gambiae (at 11 ug/cm^2, 1 hr exposure), the “lethality at 24 h” value is recorded as “None at 11”.
Turning to `CNC(=O)Oc1ccccc1C(C)(C)C` [Compound 23b, 2-tert-butylphenyl methylcarbamate], the “IC50 ratio (hAChE/Ag ace-1S)” value in the assay on Ag ace-1S [1] is reported as “(1.9x)”. Further, the IC50 at Ag ace-1S [2] was 51700 nM; at hAChE, more than 100000 nM; against Ag hmg AChE (setting [7]), 79000 nM. Moreover, at Ag hmg AChE, the “IC50 ratio (hAChE/Ag hmg)” value is listed as “(>1.3x)”. Further, in the assay on Anopheles gambiae, the “Live Mosquito Contact Toxicity MC for 100% lethality at 24 hr” value was determined as 56 ug/cm^2.
For the compound `CNC(=O)ON=C(C)SC` [Methomyl, reference compound], the “IC50 ratio (hAChE/Ag ace-1S)” value in the assay on Ag ace-1S [1] was “(0.36x)”. Moreover, the values for the IC50 against Ag ace-1S [2], on hAChE (setting [3]) and at Ag hmg AChE (setting [4]) were 1760 nM, 626 nM and 716 nM, respectively. Also, the “IC50 ratio (hAChE/Ag hmg)” value on Ag hmg AChE is listed as “(0.87x)”. The “Live Mosquito Contact Toxicity MC for 100% lethality at 24 hr” value in the assay on Anopheles gambiae was determined as 2.7 ug/cm^2.
Consider `CNC(=O)Oc1ccccc1OC(C)C` [Propoxur, reference compound], for which the IC50 at Md hmg AChE (setting [6]) is 670 nM; against Ag ace-1S [2] it was 213 nM; on hAChE, 444 nM; against Ag hmg AChE (setting [7]) it was 371 nM. In the assay on Ag ace-1S [1], the “IC50 ratio (hAChE/Ag ace-1S)” value is on record as “(2.1x)”. In addition, at Ag hmg AChE, the “IC50 ratio (hAChE/Ag hmg)” value is reported as “(1.2x)”. Moreover, in the assay on Anopheles gambiae, the “Live Mosquito Contact Toxicity MC for 100% lethality at 24 hr” value stood at 1.1 ug/cm^2.
